# Ends that are not written are not given here. * marks the point of attachment. Palmitoyl = CCCCCCCCCCCCCCCC(=O)*
# Experiments:
# [1] = Overall functional screening of tri-epitope molecules
# Description: The designed immunogens are synthesized by chemical synthesis methods. Firstly, the most probable structures according to the computer alignment and in theory are synthesized, and then functionally screened in vitro. The screening in vitro comprises: inducing the Th1 activation of peripheral blood mononuclear cells, inducing the HBV-specific CTL, inhibiting HBsAg and HBeAg on HepG2.2.1.5 cells with polypeptide antigen-specific CTL, etc. The designed structures are optimized, improved and synthesized in the next cycle bused on the results of functional tests in vitro. The structures selected out in the in vitro tests are further screened in in vivo tests, the screening comprising: inducing the Th1 activation in Balb/C mice, inhibiting virus replication in HBV transgenic mice, conducting acute toxicity tests in mice, etc. […] Among tri-epitope molecules of different epitope combinations, εPA44 achieves the best effect (see Table 4). The in vivo and in vitro tests indicate that the convalent modification by palmitic acid gives better effects among various chemical modifications.
# HBV-DNA transgenic mice = assay: HBV transgenic mice: cytokines of spleen lymphocytes, ELISA (Th1/Th2); type: in vivo; settings: 10, 100, 1000 U/mouse s.c., day 30; spleen lymphocytes restimulated with 10 ng/ml for 3 days
# Protocol: (§1) The levels of cytokines such as IFN-γ, IL-4, etc. in supernatant were measured by the ELISA method, and the activity of the test drug (CH3(CH2)14COKSSQYIKANSKFIGITEAAASIVSPFIPLLGGGDPRVRGLYFPA) (SEQ ID NO:5) for inducing the differentiation of T cells into Th1/Th2 type was analyzed. […] The expression frequency of IFN-γ secreting cells in peripheral blood lymphocytes was measured by the ELI-SPOT method in said supernatant. […] On the 10th, 20th and 30th day after the end of the three immunizations, bloods were removed, serum isolated, and the contents of HBsAg and HBV-DNA in the serum were separately measured by the ELISA method and quantitative PCR method.
# Then supernatants were collected and the secretion levels of cytokines such as TNF-α, IFN-γ, IL-4, etc. in supernatants were measured by ELISA, and the activity of the test drug for inducing the conversion of Th1/Th2 type from T cells in subjects was analyzed.
# [2] = test system: hepatitis B surface antigen (HBsAg) in HBV transgenic mice; assay: HBV transgenic mice: HBsAg in serum, ELISA; type: in vivo; settings: 10th, 20th, 30th day after three immunizations, 10-1000 U/mouse
# Protocol: as §1
# [3] = test system: HBV DNA in HBV transgenic mice; assay: HBV transgenic mice: HBV DNA in serum, quantitative PCR; type: in vivo; settings: 10th, 20th, 30th day after three immunizations, 10-1000 U/mouse
# Protocol: as §1
# [4] = Stability in different solution systems (RP-HPLC); type: physicochemical
# Description: εPA44 was soluble and stable in DMSO, but poorly soluble and stable in other solutions (see Table 5). Thus, DMSO was used as the mobile phase for SEC.
# Balb/c mice = assay: Th1 activation, serum Th1/Th2 cytokines by ELISA; type: in vivo; settings: serum 3 weeks after immunization
# Protocol: Balb/c mice (both male and female) of 2-3 Months old were divided into 8 groups, and were immunized with εPA44 at both postpede palmas once a week for three times at different doses: 0.001 nmol, 0.01 nmol, 0.1 nmol, 0.5 nmol, 1 nmol, 10 nmol, 20 nmol, and 40 nmol respectively. 3 weeks after immunization, the mice were bled by removing their eyeballs and serums were collected. Th1/Th2 cytokines were tested by ELISA.
# [5] = test system: human peripheral blood mononuclear cells (PBMCs); assay: Proliferation of human PBMCs from normal persons, 3H-TdR; type: cell-based; settings: 0.1 μg, 1 μg and 10 μg/ml with IL-2
# Protocol: Anticoagulant peripheral blood was collected from normal persons under sterile conditions, PBMCs were isolated by conventional Ficoll-Hypaque density gradient centrifugation and were cultured in RPMI1640 culture media (containing 10% calf serum, 100 u/ml penicillin-streptomycin, L-glutamine) in vitro on 24-well culture plates at the cell concentration of 10^6/ml. Blank control group, test group and Pre-S(2) control group were included, to which IL-2 (30 IU/ml) and test drug (0.1 μg/ml, 1 μg/ml, 10 μg/ml) were added. After the cells were cultured for 6 days, IL-2 and the test drug were added at the same dose to stimulate the cells again, and then 3H-TdR (1 uCi/ml) was added. After the cells were further cultured for 18 hours, they were collected and tested by liquid scintillation.
# [6] = test system: T2 cells, E6 cells, and HepG2.2.15 cells; assay: HBV-specific effective CTL from hepatitis patients' PBMC, cytotoxicity; type: cell-based, human
# Protocol: Acute and chronic hepatitis blank control groups, acute hepatitis+test drug group and chronic hepatitis+test drug group were included. The PBMC's from the patients were cultured in vitro and stimulated repetitively to generate antigen-specific effective CTL cells and amplified their number. Then they were used to cytotoxically kill peptide antigen pre-coated T2 cells, E6 cells, and HepG2.2.15 cells.
# [7] = pI stated in the formulation description; type: physicochemical; settings: stated without method in formulation example 39
substance,measurement,setting,value
"K(Palmitoyl)SSQYIKANSKFIGITEAAAFLPSDFFPSVGGGDPRVRGLYFPA-OH [SEQ ID NO:1, CH3(CH2)14COKSSQYIKANSKFIGITEAAAFLPSDFFPSVGGGDPRVRGLYFPA]",effect among tri-epitope molecules of different epitope combinations,[1],best effect
same,IL-4 secretion,HBV-DNA transgenic mice,no obvious dose-effect dependence relation
same,secretion of IFN-γ,HBV-DNA transgenic mice,stronger
same,HBsAg in the serum,[2],decreased in a manner of dose-dependence and time-dependence
same,"HBV-DNA in the serum (copy number, replication level)",[3],obviously decreased in a manner of dose-dependence and time-dependence
same,Stability,[4]; 50% Acetonitrile-0.1% TFA,Unstable
same,Stability,[4]; 50% Ethanol-10 mmol/L HCl,Unstable
same,Stability,[4]; 50% Ethanol-10 mmol/L phosphoric acid,Unstable
same,Stability,[4]; DMSO,Stable*
same,dose inducing the generation of IFN-γ and IL-2,Balb/c mice,0.01 nmol
same,proliferation of human PBMCs,[5],stimulated the proliferation of human PBMCs in a manner of dose dependence
same,target cell-specific lysis rate,[6]; PBMCs from acute hepatitis patient in convalescent phase,up to 68.6%
same,target cell-specific lysis rate,[6]; PBMCs from chronic hepatitis patient,up to 42.6%
same,specific killing of target cells,[6]; PBMCs of hepatitis patients,specifically kill aforesaid three target cell lines
same,pI,[7],8.1

# — patent US8591908B2, “Immunogen for preparation of therapeutic vaccines or drugs for treatment of hepatitis B and the producing method and use thereof” (Institute of Immunology, PLA, priority 2002, dated 2013)
